Experimental findings from US20220031680A1, “Donecopride As Neuroprotective Agent In the Treatment of Neurodegenerative Diseases” (priority 2018, published 2022) are described below.

Structures are written as SMILES.

The test system of one test is Aβ42. Kind of test: Aβ42 concentration in cerebrospinal fluid of 5×FAD mice. The class given is in vivo, mouse. As to conditions: 1 mg/kg twice a week for 3 months; compared to controls. How it is done:
(§1) 5×FAD mice received chronic treatments with drugs or vehicle according to 2 different protocols. In each experiment, drugs or vehicle solution were administered i.p. twice a week (1 mg/kg). In “Protocol 1”, mice (n=6-7 mice per group) were treated with compounds for two months, from 2 to 4 months of age. In “Protocol 2”, mice (n=7) were treated with compounds for three months, from 1 month to 4 months of age. At the end of each protocol, mice were anesthetized with a mixture of 100 mg/kg ketamine and 10 mg/kg xylazine in saline solution and perfused transcardially with PBS. Brains were quickly isolated on ice, the olfactory bulbs and cerebellum removed and the two hemispheres divided. One hemisphere was frozen on dry ice and stored at −80° C. for biochemical analysis, while the other was post-fixed in 4% PFA for immunohistochemistry (IHC).
Mice were anesthetized and mounted onto a stereotaxic instrument. The neck skin was cut and subcutaneous tissue and muscles separated with the help of micro-retractors (Fine Science Tools, Heidelberg, Germany). Mice were then laid down so that the head formed an angle of about 135° with the body (Liu and Duff (2008) J. Vis. Exp. 10:960). A capillary tube (Borosilicate glass, B100-75-10, Sutter Instruments, Novato, Calif., USA) was used to punch the dura mater of the cisterna magna. CSF was collected by capillary action and transferred to 0.5 mL microtubes, immediately frozen on dry ice and stored at −80° C. until use. Once thawed, samples were heated at 60° C. for 5 min as described in the international application WO 2008/009868 and analyzed without further freezing-thawing cycles.
ELISA kits from IBL International (Hamburg, Germany) for the dosage of Aβ40 (human amyloid β (1-40) assay kit, #27713) or Aβ42 (human amyloid β (1-42) assay kit, #27719) were used according to the manufacturer's instructions. Reactions were read at 620 nm and 450 nm using an Infinite 2000 luminescence counter. The obtained values were normalized to the protein concentration of each sample, measured using a BCA protein assay (Sigma-Aldrich). […]

Another test deals with GFAP. Kind of test: Astrogliosis (GFAP staining) in 5×FAD mouse brain. The class given is in vivo. To be noted: 1 mg/kg twice a week for 3 months. The protocol:
as §1
(§2) Thirty-micrometer-thick sections were cut using a vibratome (Microm HM 650V, Thermo Scientific, Saint Herblain, France) and stored in cryoprotectant medium at −20° C. For the labeling of amyloid plaques, free-floating tissue sections of frontal cortex, hippocampus and entorhinal cortex (coordinates from the bregma: frontal cortex=1.98 mm, hippocampus=−1.94 mm, entorhinal cortex=−3.08 mm) were extensively washed in PBS and then incubated in blocking solution (PBS; 3% BSA; 0.1% Triton X-100) for 1 h. Sections were stained with Hoechst dye (1:1000, Life Technologies, Saint Aubin, France) for 15 minutes to detect cell nuclei and then with freshly prepared thioflavin T solution (#T3516-5G, Sigma-Aldrich) (final concentration: 0.01 mg/ml in blocking buffer) for 15 minutes. After washing in 70% ethanol for 5 minutes, samples were mounted on poly-lysine slides with coverslips. For GFAP (glial fibrillary acidic protein) staining, free-floating brain sections were blocked as before and incubated with polyclonal rabbit anti-GFAP (1:1000, Z0334, Dako, Les Ullis, France) at 4° C. overnight. After thioflavin T staining and washing with 70% ethanol, the secondary Alexafluor 594 goat anti-rabbit antibody (1:1000, A11012, Life Technologies) was added for 2 h. PBS washes and mounting were performed as described before.
(§3) Images were acquired with an Axiolmager Z1 microscope (Carl Zeiss S.A.S., Marly le Roi, France). Analysis of thioflavin T staining was performed blindly and data are presented as the mean number of particles per mm^2 in two to three tissue sections from the same brain area/animal (Image J software). GFAP expression was quantified using Image J software and results are expressed as area fractions.
(§4) 28 female 5×FAD mice (C57BL/6J genetic background) were used in this study. Mice received vehicle or compounds (1 mg/kg) i.p., twice a week for three months, from 1 to 4 months of age.

In the next test the test system is 5×FAD mice. Kind of test: Novel object recognition test in 5×FAD mice. To be noted: 1 mg/kg twice a week for 3 months; 24 h inter-session interval. In kind it is in vivo, mouse. How it is done: Animal experiments were carried out in accordance with the Directive by the Council of the European Communities of Nov. 24, 1986 (86/609/EEC). All efforts were made to minimize animal suffering and to reduce the number of mice used. The generation of 5×FAD mice was described in Oakley et al. (2006) J. Neurosci. 26:10129-10140. These transgenic mice overexpress both human APP (695) harboring the Swedish (K670N, M671L), Florida (1716V) and London (V7171) familial AD (FAD) mutations and human Presenilin 1 (PS1) harboring the two FAD mutations M146L and L286V. Expression of both transgenes is regulated by neuronal-specific elements of the mouse Thy1 promoter. The 5×FAD strain (B6/SJL genetic background) was maintained by crossing hemizygous transgenic mice with B6/SJL F1 breeders. The 5×FAD strain (C57BL/6J genetic background) was maintained by crossing hemizygous transgenic mice with C57BL/6J F1 breeders. All animals were genotyped by PCR using tail genomic DNA. Transgenic and WT mice were bred in our animal facility, had access to food and water ad libitum and were housed under a 12 h light-dark cycle at 22-24° C. Female 5×FAD mice were used in this study. For each experiment, the age of mice is indicated in months (with a two-week range).
Compounds were resuspended in DMSO (37.5 μg/μl, stored at −20° C.) and freshly diluted 1:250 in 0.9% NaCl prior administration. Vehicle solution (0.9% NaCl, 0.4% DMSO) was used as control.
5×FAD mice received chronic treatments with drugs or vehicle according to 2 different protocols. In each experiment, drugs or vehicle solution were administered i.p. twice a week (1 mg/kg). […]
The cognitive performance of mice was tested using the novel object recognition (NOR) test (Bevins and Besheer (2006) Nat. Protoc. 1:1306-1311). […] The whole experiment was video-recorded and object exploration [time spent by the mouse nose in contact with the object or by sniffing it at a distance s 1 cm] was blindly measured. […] A discrimination index was also calculated ([novel−familiar]/[familiar+novel]). […]

For the next test, the system named is amyloid plaques. Kind of test: Number of amyloid plaques (thioflavin T) in 5×FAD mouse brain. The class given is in vivo. To be noted: 1 mg/kg twice a week for 3 months. The protocol: as §1, §2, §3, §4
Anti-amyloid effect. Frontal cortex, hippocampus and entorhinal cortex were analyzed as representative areas of 5×FAD mouse brain (frontal, median and caudal sections) and of human brain regions that are affected early by Alzheimer's disease and are highly enriched in amyloid deposits.

With `CCCCN1CCC(CCC(=O)c2cc(Cl)c(N)cc2OC)CC1` [RS 67333, 1-(4-amino-5-chloro-2-methoxy-phenyl)-3-(1-butyl-4-piperidinyl)-1-propanone, reference compound], the “Aβ42 concentration in cerebrospinal fluid (CSF)” value in the test with Aβ42 is reported as “not significantly different”. The “GFAP staining in frontal cortex or hippocampus” value in the test on GFAP (compared to controls) is listed as “not significantly different”. The “decrease of GFAP staining in entorhinal brain slices” value with GFAP (compared to vehicle) was 62±6%. Further, in the test on 5×FAD mice, the “recognition memory, exploration of novel vs familiar object (NOR)” value is given as “reverses cognitive impairment”. In the test on amyloid plaques (compared to controls), the “Amyloid plaque number in hippocampus” value is “not significantly different”. In the test with amyloid plaques (compared to vehicle), the “reduction of the number of amyloid plaques in entorhinal cortex” value is reported as “No significant effect” and the “reduction of the number of amyloid plaques in frontal cortex” value is “No significant effect”.
